According to patent US7799524B2, “Substrates for O6-alkylguanina-DNA alkyltransferase” (Ecole Polytechnique Ferdeale de Lausanne, priority 2002, dated 2010):
Positions count from the first letter of the chain named.

Columns and labels:
hAGT = target: T1, hAGT (Homo sapiens, UniProt P16455); details: reaction with hAGT; cited from earlier work
T1 sequence (P16455 1-207): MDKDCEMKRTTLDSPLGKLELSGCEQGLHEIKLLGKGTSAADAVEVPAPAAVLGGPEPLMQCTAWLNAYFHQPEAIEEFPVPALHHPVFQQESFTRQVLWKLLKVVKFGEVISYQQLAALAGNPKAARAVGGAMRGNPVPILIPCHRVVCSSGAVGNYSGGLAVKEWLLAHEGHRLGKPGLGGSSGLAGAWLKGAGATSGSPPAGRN

^PGEAhAGT-GST [1] = target: T2, ^PGEAhAGT-GST (Homo sapiens, UniProt P16455, G160A/N157G/S159E); test: Reactivity with hAGT fusion protein: pre-incubation with compound, then biotinylated O^6-benzylguanine-oligonucleotide, Western Blot (anti-biotin); assay type: biochemical; details: 18 pmol protein, 0.2 μL of 5 mM compound in 15 μL 50 mM HEPES pH 7.5, 1 h, then 10 pmol biotinylated oligonucleotide 15 min
T2 sequence (P16455 1-207 N157G/S159E/G160A): T1 sequence (P16455 1-207) with N157G, S159E, G160A
Method: Lane marked “C” (control): The reaction product of ^[…] and the biotinylated O^6-benzylguanine oligonucleotide. […] Damoiseaux et al., ChemBiochem 4: 285-287, 2001) is added, and the reaction is allowed to continue for further 15 min. As a control 18 pmol ^[…] are incubated with 10 pmol of the same biotinylated oligonucleotide in a total volume of 15 μL of 50 mM HEPES pH 7.5 for 15 min without any substrate. Detection of the biotinylated reaction product between ^[…] and the biotinylated oligonucleotide is performed by Western Blotting using an anti-biotin conjugate coupled to HRP (Pierce).

^PGEAhAGT-GST [2] = target: T2, ^PGEAhAGT-GST; test: Labelling of hAGT fusion protein, Western Blot with anti-fluorescein antibody; assay type: biochemical; details: 18 pmol ^PGEAhAGT-GST, 0.5 nmol compound, 15 μL 50 mM HEPES pH 7.5
Method: Lanes 1 and 2 (two different concentrations) show the reaction product of compound 60 bearing a fluorescein label and a biotin label (a compound of formula 1 wherein L is a plurality of labels) with ^PGEAhAGT-GST.
18 pmol ^PGEAhAGT-GST are incubated with 0.5 nmol 60 in a total volume of 15 μL of 50 mM HEPES pH 7.5. The reaction product is detected by Western Blotting using a goat anti-fluorescein antibody (Rockland) and a HRP conjugated anti-goat antibody (Sigma).

GST-^3HYhAGT = target: T3, GST-^3HYhAGT (Homo sapiens, UniProt P16455, A127T/K125A/N157G/R128A/S159E); test: In vitro reactivity against GST-^3HYhAGT followed by Western Blotting with anti-methotrexate antibody; assay type: biochemical
T3 construct: made in house; host or cells: E. coli
T3 sequence (P16455 1-207 K125A/A127T/R128A/N157G/S159E): T1 sequence (P16455 1-207) with K125A, A127T, R128A, N157G, S159E
Method: GST-^3HYhAGT is incubated with an excess of 78 or 79 and the reaction is followed by Western Blotting using an anti-methotrexate antibody. […] Accordingly, at concentrations of 78 of 1 μM and at an excess of 78 over ^3HYhAGT (pseudo first-order conditions), 50% of the protein is labelled in less than 10 min.
For the construction of hAGT fusion proteins, preferably the mutant Asn157Gly Ser159Glu is used. […] The rationale behind the introduction of these mutations is to minimize the interaction of hAGT fusion proteins with DNA in the three-hybrid system. The resulting hAGT mutant carrying the five mutations described above is abbreviated as ^3HYhAGT.

[3] = tested on: yeast L40 expressing LexA and B42 fusion proteins of ^3HYhAGT and DHFR; test: Growth assay of yeast L40 strains on plates lacking histidine (HIS3 reporter, three-hybrid system); assay type: cell-based; details: for Growth rate: plates lacking histidine
Method: Pairs of plasmids encoding LexA-^3HYhAGT and B42-DHFR fusion proteins are transformed into the yeast strain L40 in which the reconstitution of functional LexA-B42 transcription factor leads to transcription of the reporter genes HIS3 and lacZ. It is tested if the expression of different combinations of fusion protein in the presence of either 78 or 79 complemented the histidine auxotrophy of the yeast L40 (Table 1). […] No growth is observed in the absence of 78 or 79.
In principal, the reconstitution of functional transcription factor through benzyl guanine 78 and 79 is independent of which ligand-binding protein is fused to LexA and which to B42. To verify this assumption the growth of yeast L40 co-expressing LexA-DHFR and B42-^3HYhAGT on plates lacking histidine but containing compounds 78 or 79 is examined.

[4] = tested on: yeast strain L40 expressing LexA and B42 fusion proteins of ^3HYhAGT and DHFR; test: Quantitative β-galactosidase assay using ONPG (lacZ reporter) in yeast L40; assay type: cell-based; details: 1 μM, cell extracts of liquid cultures
Method: The activation of transcription of the lacZ reporter gene by the benzyl guanine based compounds 78 and 79 in the yeast strain L40 expressing different combinations of LexA and B42 fusion proteins is examined (Table 2). In this assay, the activity of the product of the lacZ gene, β-galactosidase, is determined by measuring the hydrolysis rate of the chromogenic substrate o-nitrophenyl-β-D-galactopyranoside (ONPG) in cell extracts of liquid cultures.

[5] = co-expression of LexA-DHFR and B42-^3HYhAGT
[6] = co-expression of LexA-^3HYhAGT and B42-DHFR

Nc1nc(OCc2ccccc2)c2nc[nH]c2n1 [O^6-benzylguanine]
second order rate constant (hAGT): approximately 10^3 sec^−1 M^−1

NCCOCCOCCOCCn1cc(COc2nc(N)nc3[nH]cnc23)nn1 [compound 11, O^6-(1-[11-Amino-3,6,9-trioxaundecyl]-1,2,3-triazolyl-4-methyl)guanine]
reaction of ^PGEAhAGT-GST with biotinylated oligonucleotide after first reacting with the compound (^PGEAhAGT-GST [1]): no further reaction with biotinylated oligonucleotide is observed

Nc1nc(OCc2ccc(COCCOCCOCCOCCNC(=O)C(CCCCNC(=O)CCCCCNC(=O)c3ccc(-c4c5ccc(=O)cc-5oc5cc(O)ccc45)c(C(=O)O)c3)NC(=O)CCCCCNC(=O)CCCC[C@H]3SC[C@H]4NC(=O)N[C@H]43)cc2)c2nc[nH]c2n1 (stereo partly drawn) [compound 60, O^6-Benzylguanine-PEG-amino-α-N-(biotinyl-6-aminocaproyl)-ε-N-(6-[fluorescein-5-carbonyl]-aminocaproyl)-lysine]
substrate for hAGT (reaction product detected by Western Blotting) (^PGEAhAGT-GST [2]): efficient substrate for hAGT

CN(Cc1cnc2nc(N)nc(N)c2n1)c1ccc(C(=O)N[C@@H](CCC(=O)NCCCCCCCCCCCC(=O)NCc2ccc(COc3nc(N)nc4[nH]cnc34)cc2)C(=O)O)cc1 [compound 78]
time in which 50% of the protein is labelled (GST-^3HYhAGT; 1 μM 78, excess over ^3HYhAGT, pseudo first-order conditions): less than 10 min | kinact/KI (GST-^3HYhAGT; GST-^3HYhAGT incubated with an excess of compound, read-out: second-order rate constant): ~1500 M⁻¹ s⁻¹ | Growth rate ([3]; LexA-DHFR/ B42-^3HYhAGT, 1 μM): ++ (detection of colonies within 3 days) | Growth rate ([3]; LexA-^3HYhAGT/ B42-DHFR, 1 μM): +++ (detection of colonies within 2 days) | growth of yeast L40 on plates lacking histidine (in words) [3, 5]: growth dependent on compounds 78 or 79 is observed | growth of yeast L40 on plates lacking histidine (in words) [3, 6]: allows yeast L40 to grow on plates lacking histidine | ONPG hydrolysis ([4]; LexA-DHFR/ B42-^3HYhAGT): 28 nM of o-nitrophenol formed per min per mg total protein | ONPG hydrolysis ([4]; LexA-^3HYhAGT/ B42-DHFR): 865 nM of o-nitrophenol formed per min per mg total protein

CN(Cc1cnc2nc(N)nc(N)c2n1)c1ccc(C(=O)NC(CCC(=O)NCCOCCOCCOCCOCc2ccc(COc3nc(N)nc4nc[nH]c34)cc2)C(=O)O)cc1 (stereo not drawn) [compound 79, O^6-4-[13-N-(4-{4-[N-(2,4-Diamino-6-pteridinylmethyl)-methylamino]-benzoyl-amino}-4-carboxybutanoyl)-amino-2,5,8,11-tetraoxatridecyl]-benzyl guanine]
second-order rate constant (GST-^3HYhAGT; GST-^3HYhAGT incubated with an excess of compound): ~900 sec^−1M^−1 | Growth rate ([3]; LexA-DHFR/ B42-^3HYhAGT, 10 μM): ++ (detection of colonies within 3 days) | Growth rate ([3]; LexA-^3HYhAGT/ B42-DHFR, 10 μM): +++ (detection of colonies within 2 days) | growth of yeast L40 on plates lacking histidine (in words) [3, 5]: growth dependent on compounds 78 or 79 is observed | growth of yeast L40 on plates lacking histidine (in words) [3, 6]: allows yeast L40 to grow on plates lacking histidine | ONPG hydrolysis ([4]; LexA-DHFR/ B42-^3HYhAGT): 24 nM of o-nitrophenol formed per min per mg total protein | ONPG hydrolysis ([4]; LexA-^3HYhAGT/ B42-DHFR): 63 nM of o-nitrophenol formed per min per mg total protein
